According to paper PMC11440508, “Dually Labeled Neurotensin NTS1R Ligands for Probing Radiochemical and Fluorescence-Based Binding Assays” (Journal of Medicinal Chemistry, 2024):
Values joined by “and” are separate entries in the source; they are usually repeats but may differ in a detail not shown here. Equal values may be shown once. “Also recorded” adds a separate entry of the source.

Legend:
NTS1R [1] = target: T1, NTS1R (Homo sapiens, UniProt P30989); assay: High-content imaging (HCI) saturation binding, adherent CHO-hNTS1R cells; settings: 23 °C
Procedure: CHO-hNTS1R or HT-29 cells were seeded one day prior to the experiment into the inner 60 wells of a black clear-bottom 96-well plate (Greiner 655090, Greiner Bio-One) at a concentration of 25,000 cells/well and 35,000 cells/well, respectively. On the day of the assay, the medium was removed by suction and the cells were washed with DPBS1 (50 μL). After this step, DPBS1 (180 or 200 μL) containing the nuclear dye Hoechst H33342 (2 μg/mL) was added. This solution also contained the fluorescent ligand (kinetic studies, competition binding experiments), or the fluorescent ligand was added separately (saturation binding experiments). […] Shortly before subjecting the plate to the plate reader for image acquisition, the liquid was removed by suction and DPBS1 (100 μL) was added. Images were acquired using an IX Micro plate reader (Molecular Devices, Sunnyvale, CA) using a 20× Plan Fluor ELWD objective, a xenon lamp light source and DAPI and TRITC excitation/emission filter cubes for imaging nuclear and fluorescent ligand staining, respectively. […] Two sites/well were measured throughout. Images were analyzed by granularity analysis (2–3 μm diameter granules; MetaXpress 5.3, Molecular Devices, San Diego, CA) and the integrated intensity (pixel intensity × granule area) per cell was used as the raw measurement of fluorescent ligand binding. […]

NTS1R [2] = target: T1, NTS1R; assay: High-content imaging (HCI) association and dissociation kinetics, adherent CHO-hNTS1R cells; assay type: binding; settings: for koff: 23 °C, read-out: koff [min^–1] (converted); for kon: calculated from kobs, koff and ligand concentration, read-out: kon [min^–1 nM^–1] (converted)
Procedure: CHO-hNTS1R or HT-29 cells were seeded one day prior to the experiment into the inner 60 wells of a black clear-bottom 96-well plate (Greiner 655090, Greiner Bio-One) at a concentration of 25,000 cells/well and 35,000 cells/well, respectively. On the day of the assay, the medium was removed by suction and the cells were washed with DPBS1 (50 μL). After this step, DPBS1 (180 or 200 μL) containing the nuclear dye Hoechst H33342 (2 μg/mL) was added. This solution also contained the fluorescent ligand (kinetic studies, competition binding experiments), or the fluorescent ligand was added separately (saturation binding experiments). In the case of competition binding experiments, the nonlabeled receptor ligands were also added separately (details given below). All samples were incubated at 23 ± 1 °C in the dark under gentle shaking (incubation times are specified below). The final volume per well was 200 μL. Shortly before subjecting the plate to the plate reader for image acquisition, the liquid was removed by suction and DPBS1 (100 μL) was added. Images were acquired using an IX Micro plate reader (Molecular Devices, Sunnyvale, CA) using a 20× Plan Fluor ELWD objective, a xenon lamp light source and DAPI and TRITC excitation/emission filter cubes for imaging nuclear and fluorescent ligand staining, respectively. […] Two sites/well were measured throughout. Images were analyzed by granularity analysis (2–3 μm diameter granules; MetaXpress 5.3, Molecular Devices, San Diego, CA) and the integrated intensity (pixel intensity × granule area) per cell was used as the raw measurement of fluorescent ligand binding. […]
After the initial washing step, 200 μL of DPBS1 containing the fluorescent ligand 13 or 18 (2.5 nM) and DAPI were added to determine total binding. […] The samples of the different time points were prepared in reversed order (longest incubation time first, shortest incubation time last) so that the cells of all samples could be washed and measured approximately at the same time (note: the measurement time for 60 wells was <5 min). […] Specific binding data, obtained by subtracting triplicate mean values of unspecific binding from triplicate mean values of total binding, were plotted against the time and analyzed by a three-parameter equation describing an exponential rise to a maximum (one-phase association, Y0 constrained to zero, GraphPad Prism 5) to yield the observed association rate constant kobs. […]
After initial washing of the cells, 200 μL of DPBS1 containing the fluorescent ligand 13 or 18 (2.5 nM) and DAPI were added to the wells (determination of total binding). […] The plate was directly subjected to the plate reader (no washing step). […]

[3] = Chemical stability in PBS (pH 7.4); assay type: physicochemical; settings: PBS pH 7.4, room temperature, up to 48 h, RP-HPLC
Procedure: The chemical stability of peptides 13 and 18 was investigated in PBS (adjusted to pH 7.4) at 22 °C in the dark. The incubation was started by the addition of 15 μL of a 1 mM stock solution (solvent: DMSO) to 135 μL of PBS to yield a concentration of 100 μM. After periods of 0, 6, 24, and 48 h, an aliquot (25 μL) was removed and added to 25 μL of acetonitrile/0.04% aqueous TFA 1:9 v/v to obtain a peptide solution with a concentration of 50 μM. 20 μL of this solution were subjected to analytical RP-HPLC analysis using the same system and conditions as described under Analytical HPLC with the following gradient: 0–14 min: acetonitrile/0.04% aqueous TFA 10:90–30:70, 14–15 min: 30:70–95:5, 15–20 min: 95:5 (isocratic). A 1:1 mixture of PBS and acetonitrile/0.04% aqueous TFA 1:9 v/v (20 μL) was analyzed to obtain the blank chromatogram.

[4] = Recovery from human plasma/PBS 1:2 v/v; assay type: in vitro ADME; parameters: recovery compd. (%): dose or concentration left out as unconfirmed; settings: for recovery compd. (%): human plasma/PBS 1:2 v/v
Procedure: The proteolytic stabilities of 13 and 18 were investigated in human blood plasma/PBS (136.9 mM NaCl, 2.68 mM KCl, 5.62 mM Na2HPO4, 1.09 mM NaH2PO4, and 1.47 mM KH2PO4, pH 7.4) 1:2 v/v according to a described procedure[38] with the following modifications: 5 mM stock solutions in EtOH/10 mM aqueous HCl 1:1 v/v were used for the addition of the peptides to plasma/PBS 1:2 v/v. As the RP-HPLC purity of 1-methyl-D-Trp, used as internal standard (IS), was <95%, the compound was purified by preparative HPLC to give a purity of >99%. […] Samples were analyzed using the same RP-HPLC system and conditions as described under Analytical HPLC with the following gradient: 0–6 min: acetonitrile/0.04% aqueous TFA 10:90–21:79, 6–12 min: 21:79–40:60, 12–13 min: 40:60–95:5, 13–16 min: 95:5 (isocratic). Data analysis was based on UV detection at 220 nm. Reference samples, representing 100% recovery, were prepared in quadruplicate. Recovery ratios were obtained by dividing the recovery of the peptide by the recovery of IS for each individual sample (n = 4). The obtained recoveries and the recovery ratios are summarized in Table S2, Supporting Information.

T1 sequence (P30989 whole entry): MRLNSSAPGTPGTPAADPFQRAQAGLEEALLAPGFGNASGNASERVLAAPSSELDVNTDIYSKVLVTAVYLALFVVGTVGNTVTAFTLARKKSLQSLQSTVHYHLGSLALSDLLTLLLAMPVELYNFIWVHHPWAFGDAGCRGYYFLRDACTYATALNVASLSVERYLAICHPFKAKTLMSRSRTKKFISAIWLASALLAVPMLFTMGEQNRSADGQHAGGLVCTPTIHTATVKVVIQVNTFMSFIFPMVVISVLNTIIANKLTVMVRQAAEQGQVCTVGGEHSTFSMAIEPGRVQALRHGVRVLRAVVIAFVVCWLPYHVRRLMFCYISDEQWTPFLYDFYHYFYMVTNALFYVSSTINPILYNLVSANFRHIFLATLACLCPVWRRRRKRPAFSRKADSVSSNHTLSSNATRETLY

Row | Compound | Kd (NTS1R [1]) | koff (NTS1R [2]) | kon (NTS1R [2]) | chemical stability in PBS [3] | recovery compd. (%) ([4]; individual experiments) | mean recovery ratio ± SEM ([4]; four independent experiments) | ratio of peptide recovery over recovery of internal standard ([4]; individual experiments, internal standard 1-methyl-D-tryptophan)
1 | CCC(=O)NCCCCNC(=O)N=C(N)NCCC[C@H](NC(=O)[C@@H]1CCCN1C(=O)[C@@H](NC(=O)CCc1cn(CCCNC(=O)c2ccc(-c3c4ccc(=[N+](C)C)cc-4oc4cc(N(C)C)ccc34)c(C(=O)[O-])c2)nn1)C1CCNCC1)C(=O)N[C@@H](CCCNC(=N)N)C(=O)N1CCC[C@H]1C(=O)N[C@@H](Cc1ccc(O)cc1)C(=O)N[C@H](C(=O)N[C@@H](CC(C)C)C(=O)O)[C@@H](C)CC [Compound 13, N^α-(3-(1-N-((1-Carboxylato-2-(6-(dimethylamino)-3-(dimethyliminio)-3H-xanthen-9-yl)phen-5-yl)1-oxomethyl)aminoprop-3-yl-1H-1,2,3-triazol-4-yl)propanoyl)-2-(piperidin-4-yl)-Gly-Pro-N^ω-[(4-(N-propanoyl)aminobutyl)aminocarbonyl]Arg-Arg-Pro-Tyr-Ile-Leu Tris(hydrotrifluoroacetate)] | 1.1 ± 0.2 nM | 0.000733 s⁻¹ | 267000 M⁻¹ s⁻¹ | high stability; also recorded: very slow degradation observable after 24 h | 75% and 102% and 104% | – | –
2 | CCC(=O)NCCCCNC(=O)NC(=N)NCCC[C@H](NC(=O)[C@@H]1CCCN1C(=O)[C@@H](NC(=O)CCc1cn(CCCNC(=O)CCC#Cc2ccc3c(c2)C(C)(C)C2=C4C=C5C6=[N+](CCC5OC4CCN23)c2ccc(S(=O)(=O)[O-])cc2C6(C)C)nn1)C1CCNCC1)C(=O)N[C@@H](CCCNC(=N)N)C(=O)N1CCC[C@H]1C(=O)N[C@H](C(=O)N[C@H](C(=O)N[C@@H](CC(C)C)C(=O)O)[C@@H](C)CC)C(C)(C)c1ccc(O)cc1 (stereo partly drawn) [Compound 18, N^α-(3-(N-(1-(8-Sulfonato-5,5,27,27-tetramethyl-16-oxa-20-aza-12-azoniaheptacyclo[15.11.0.03,15.04,12.06,11.020,28.021,26]octacosa-1(28),2,4(12),6(11),7,9,21(26),22,24-nonaen-24-yl)-5-oxopentyn-5-yl)-1-aminoprop-3-yl-1H-1,2,3-triazol-4-yl)propanoyl)-2-(piperidin-4-yl)-Gly-Pro-N^ω-[(4-(N-propanoyl)aminobutyl)aminocarbonyl]Arg-Arg-Pro-β,β-dimethyl-L-Tyr-Ile-Leu Tris(hydrotrifluoroacetate)] | 1.3 ± 0.3 nM | 0.00085 s⁻¹ | 135000 M⁻¹ s⁻¹ | highly stable over 48 h; also recorded: no decomposition | 98% and 72% and 65% and 70% | 0.99 ± 0.02 | 1.01 (2×) and 1.03 and 0.91
